“Also recorded” adds a separate entry of the source.
Columns and labels:
PI3K (p110α/p85α) = biological target: T1, PI3K (p110α/p85α) (Homo sapiens, UniProt P42336); assay: PI3K activity assay (ADP Hunter Plus); type: biochemical; conditions: read-out: IC50, PI3K inhibition
T1 construct: purchased Carna Biosciences 07CBS-0402A
Method: The kinase activity was measured by using the commercial ADP Hunter™ Plus assay available from DiscoveRx (#33-016), which is a homogeneous assay to measure the accumulation of ADP, a universal product of kinase activity. […] Reaction was carried out for 1 hour at 25° C. Reagent A and B were sequentially added to the wells and plates were incubated for 30 min at 37° C. […] Values were normalized against the control activity included for each enzyme (i.e., 100% PI3 kinase activity, without compound). These values were plot against the inhibitor concentration and were fit to a sigmoid dose-response curve by using the Graphad software.

[1] = test system: Preadipocytes 3T3-L1 ectopically expressing C/Ebpβ differentiated into brown adipocytes; assay: 3T3-L1/C/Ebpβ differentiated brown adipocytes treated with PI3Ki; type: cell-based; conditions: 1 μM, 4 h
Method: Mouse Embryonic Fibroblasts (MEFs) were isolated at E13.5 as previously described^42. For insulin stimulation, primary MEFs were serum starved (0% FBS) for 12 h, followed by 60 min incubation with PBS and then stimulated with 1 μg/ml of insulin (Sigma) during 30 min. For oncogenic transformation, primary MEFs were retrovirally transduced with pLXSN-neo-E6 and either pWZL-blast-middle-T (kindly provided by Jean Zhao, Dana-Farber Cancer Institute, Boston) or pBABE-puro-EGFRL858R (kindly provided by William Sellers and Matthew Meyerson, Addgene plasmid #11012)^43. After the corresponding drug selection 20,000 cells were plated in 10 cm diameter plates, and 2 weeks later were fixed and stained with 20% Giemsa. Immortalized brown adipocyte cell lines were obtained from the interscapular BAT of 3-5 day-old neonates, treated with and cultured as previously described^33. For immortalization, cultures were retrovirally transduced with Large-T antigen (in vector pBABE-puro, kindly provided by James de Caprio, Dana Farber Cancer Institute, Boston). For the reprogramming of 3T3-L1 adipocytes into brownadipocytes, we followed the method previously reported^50. Briefly, 3T3-L1 cells were retrovirally transduced with pBABE-puro-Cebpb (kindly provided by Roger R. Gomis, IRB, Barcelona). After drug selection with puromycin, cells were grown to confluence and subsequently cultured for 48 h with “differentiation medium” (DMEM 10% FBS, 20 nM insulin, 1 nM T3, 1 μM rosiglitazone, 0.5 mM isobutylmethylxanthine, 125 nM indomethacin, 5 μM dexamethasone). After this, cells were exposed to “maintenance medium” (DMEM 10% FBS, 20 nM insulin, 1 nM T3) for 4 days. […]
Total RNA from tissues or fibroblasts was extracted using TRIZOL (Invitrogen). Reverse transcription was performed using random primers and Ready-To-Go™ You-Prime First-Strand Beads (GE Healthcare). Quantitative real time-PCR was performed using DNA Master Sybr Green I mix (Applied Biosystems) in an ABI PRISM 7700 thermocycler (Applied Biosystem). […]

[2] = test system: obese mice under high-fat diet; assay: Body weight and food intake of obese mice under high-fat diet; type: in vivo; conditions: 10 mg/kg, ad libitum high-fat food
Method: Obese mice under long-term high-fat (HFD) were dosed with Compound A or with the indicated PI3KI by gavage once per day, during 2 weeks, resting the intervening week-end, and always with ad libitum access to HFD. During the two weeks of treatment, it was scored the amount of food intake (upper left panel) and the change in body weight relative to the initiation of the treatment (upper right panel). The final relative change in body weight is also represented (lower panel). The weight of non-obese littermates (always fed with standard diet, SD) is marked for reference.
(§1) Mice were fed either with a standard chow diet (Harlan Teklad 2018, 18% calories from fat) or, when indicated, with a high fat diet (Research Diets D12451, 45% of total calories from fat). To measure food intake, mice were housed in metabolic cages during 5 days, and food and water intake, as well as, the output of faeces and urine were measured during the last 4 days. Body composition (fat and lean content) was determined by Dual energy X-ray Absorptiometry (DXA) (Lunar PIXImus Densitometer, GE Medical Systems). Image acquisition lasted 5 minutes with mice under anesthesia by inhalation of 2% isofluorane in 100% oxygen. The analysis of lean mass and fat mass was performed using a Region Of Interest (ROI) comprising the entire body. […]

[3] = test system: SCID mice bearing human NSCLC A549 lung tumors; assay: Body weight of SCID mice bearing A549 lung tumor xenografts; type: in vivo; conditions: 22 mg/kg orally, 9 doses, SCID mice with A549 xenografts
Method: FIG. 41. Body weight evolution of SCID mice bearing human NSCLC A549 lung tumors when treated with Compound A orally, 9 doses of 22 mg/Kg during day 15th and 30th, versus compounds treated with vehicle.
In “normal conditions” no body weight loss is observed.

[4] = test system: obese mice under high-fat diet; assay: Adiposity by dual X-ray absorptiometry (DXA) in treated obese mice; type: in vivo; conditions: 2 weeks treatment
Method: Mice treated as in FIG. 22 were subjected to dual X-ray absorptiometry (DXA) to determine their relative content of fat and lean tissues (the head and the bone mass is not measured). Determinations were performed one week before starting the treatment (day −7 or D−7), in the middle of the 2 weeks treatment (day 7 or D7, and at the end of the treatment (day 14 or D14). The content of fat is expressed as the percentage of fat relative to the combined fat and lean mass (upper panel). The absolute lean mass is also shown (lower panel). The two panels include data from the assay shown in FIG. 22, as well as the data from our previous assay with Compound A at 15 mg/kg. The percentage of fat and the lean mass of non-obese littermates (always fed with standard diet, SD) is shown in orange for reference.
as §1, with “Systems).” for “Systems). Image acquisition lasted 5 minutes with mice under anesthesia by inhalation of 2% isofluorane in 100% oxygen. The analysis of lean mass and fat mass was performed using a Region Of Interest (ROI) comprising the entire body.”

[5] = alone or in combination with forskolin

T1 sequence (P42336 whole entry): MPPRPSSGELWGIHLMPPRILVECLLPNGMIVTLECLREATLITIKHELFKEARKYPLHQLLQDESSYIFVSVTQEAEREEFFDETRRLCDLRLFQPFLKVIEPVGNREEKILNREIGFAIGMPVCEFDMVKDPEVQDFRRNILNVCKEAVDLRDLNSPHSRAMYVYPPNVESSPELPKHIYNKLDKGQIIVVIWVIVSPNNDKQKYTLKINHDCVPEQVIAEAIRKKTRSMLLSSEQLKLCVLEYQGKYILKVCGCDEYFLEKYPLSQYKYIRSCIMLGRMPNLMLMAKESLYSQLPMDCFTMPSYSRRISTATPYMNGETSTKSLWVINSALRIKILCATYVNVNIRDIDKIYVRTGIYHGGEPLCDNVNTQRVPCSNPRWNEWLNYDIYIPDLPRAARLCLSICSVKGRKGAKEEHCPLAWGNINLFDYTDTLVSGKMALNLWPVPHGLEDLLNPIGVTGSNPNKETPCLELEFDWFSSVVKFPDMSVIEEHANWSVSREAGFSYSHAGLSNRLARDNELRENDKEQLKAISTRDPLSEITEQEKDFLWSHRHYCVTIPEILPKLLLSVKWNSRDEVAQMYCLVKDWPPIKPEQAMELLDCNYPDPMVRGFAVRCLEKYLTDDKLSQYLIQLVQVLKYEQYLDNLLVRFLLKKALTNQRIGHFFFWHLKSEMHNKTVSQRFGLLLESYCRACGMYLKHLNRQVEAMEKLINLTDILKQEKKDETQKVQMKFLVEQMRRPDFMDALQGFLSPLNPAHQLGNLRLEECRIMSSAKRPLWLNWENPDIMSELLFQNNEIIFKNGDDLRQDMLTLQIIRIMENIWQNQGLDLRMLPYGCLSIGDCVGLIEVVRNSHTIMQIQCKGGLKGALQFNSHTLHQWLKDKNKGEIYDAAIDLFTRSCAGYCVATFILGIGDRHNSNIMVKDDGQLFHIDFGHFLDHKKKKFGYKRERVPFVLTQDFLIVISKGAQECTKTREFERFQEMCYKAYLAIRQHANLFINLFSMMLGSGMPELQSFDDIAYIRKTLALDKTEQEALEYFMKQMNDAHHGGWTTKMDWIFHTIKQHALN
T1 sequence (P27986 whole entry partner): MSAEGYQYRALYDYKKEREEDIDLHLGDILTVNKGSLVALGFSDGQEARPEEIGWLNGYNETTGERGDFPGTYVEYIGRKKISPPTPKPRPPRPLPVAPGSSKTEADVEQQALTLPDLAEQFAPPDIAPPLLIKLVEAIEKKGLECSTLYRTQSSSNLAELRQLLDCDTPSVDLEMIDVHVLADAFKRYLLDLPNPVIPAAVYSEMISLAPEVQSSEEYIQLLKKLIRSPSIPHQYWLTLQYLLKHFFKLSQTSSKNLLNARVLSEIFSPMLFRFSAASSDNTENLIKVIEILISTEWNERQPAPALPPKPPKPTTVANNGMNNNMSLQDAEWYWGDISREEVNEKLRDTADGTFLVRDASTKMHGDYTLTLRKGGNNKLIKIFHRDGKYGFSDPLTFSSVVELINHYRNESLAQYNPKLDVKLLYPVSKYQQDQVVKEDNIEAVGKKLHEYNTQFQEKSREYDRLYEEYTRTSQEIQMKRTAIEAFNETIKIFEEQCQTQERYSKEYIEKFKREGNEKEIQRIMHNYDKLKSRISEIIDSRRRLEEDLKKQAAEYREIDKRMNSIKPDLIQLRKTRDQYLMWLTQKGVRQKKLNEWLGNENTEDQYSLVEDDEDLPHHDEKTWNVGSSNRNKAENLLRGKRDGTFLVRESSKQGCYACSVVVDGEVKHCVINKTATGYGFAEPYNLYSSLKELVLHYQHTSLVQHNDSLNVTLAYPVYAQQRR

CS(=O)(=O)N1CCN(Cc2cn3c(Cl)c(-c4cnc(N)nc4)nc(N4CCOCC4)c3n2)CC1 [Compound A]
IC50 (PI3K (p110α/p85α)): 2.4 nM
levels of phospho-Akt [1]: severe decrease
Pgc1α expression [1, 5]: upregulation
Ucp1 expression [1, 5]: upregulation
decrease of body weight ([2]; gavage once a day for 2 weeks): approx. 10%
food intake ([2]; during treatment): did not change significantly
body weight of non-obese mice [3]: no changes in body weight; also recorded: “lack” of weight loss activity
fat mass (DXA) [4]: loss of fat mass
lean mass (DXA) [4]: not to a loss of lean mass

From patent US9993554B2 (CENTRO NACIONAL DE INVESTIGACIONES ONCOLOGICAS (CNIO), priority 2010, dated 2018)
